# Measured values taken from patent publication US9150546B2, “Triazine derivative and pharmaceutical composition comprising the same” (SHIONOGI & CO., LTD., priority 2009, dated 2015).
# Biological target: human P2X3 receptor (Homo sapiens (Human), UniProt P56373)
# Assay: P2X3 receptor inhibition, ATP-evoked Fluo-3 fluorescence (FDSS 3000)
# Assay type: cell-based
# Details: C6BU-1 cell transfected with human P2X3 receptor gene
# human P2X3 receptor, sequence (P56373 whole entry): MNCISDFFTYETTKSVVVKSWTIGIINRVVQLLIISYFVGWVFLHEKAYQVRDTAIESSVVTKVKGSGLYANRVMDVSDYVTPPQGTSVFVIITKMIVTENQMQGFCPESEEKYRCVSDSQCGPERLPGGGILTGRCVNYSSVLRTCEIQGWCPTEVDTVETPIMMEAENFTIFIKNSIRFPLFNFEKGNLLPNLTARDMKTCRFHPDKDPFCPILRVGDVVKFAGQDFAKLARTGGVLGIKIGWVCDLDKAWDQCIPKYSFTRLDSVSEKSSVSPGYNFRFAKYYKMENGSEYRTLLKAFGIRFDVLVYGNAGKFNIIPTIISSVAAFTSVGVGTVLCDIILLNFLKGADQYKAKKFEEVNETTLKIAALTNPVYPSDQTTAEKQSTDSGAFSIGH
row,SMILES,IC50
1,COC(=O)[C@H](C)Cn1c(=O)[nH]/c(=N\c2ccc3oc(C)cc3c2)n(Cc2ccc(Cl)cc2)c1=O [I-558],5 nM
2,CC(C)Oc1ccc(/N=c2\[nH]c(=O)n([C@H](C)CC(=O)O)c(=O)n2Cc2ccc(Cl)cc2)cc1F [I-562],27 nM
3,O=c1nc(Nc2cccc(C(F)(F)F)c2)n(Cc2ccc(Cl)cc2)c(=O)n1CC(CO)CO [I-367],40 nM
4,COC(=O)[C@@H](C)Cn1c(=O)[nH]/c(=N\c2ccc(OC(C)C)c(F)c2)n(Cc2ccc(Cl)cc2)c1=O [I-453],5 nM
5,CC(C)Oc1ccc(Nc2nc(=O)n(CCN3CCCCC3)c(=O)n2Cc2ccc(Cl)cc2)cc1F [I-282],27 nM
6,CCOc1ccc(Nc2nc(=O)n(CCCO)c(=O)n2Cc2ccc(Cl)cc2)cc1 [I-361],76 nM
7,CC(C)Oc1ccc(Nc2nc(=O)n(CCNC(N)=O)c(=O)n2Cc2ccc(Cl)cc2)cc1F [I-386],41 nM
8,CN(C)Cc1ccc(/N=c2\[nH]c(=O)n(CC(C)(C)C(=O)O)c(=O)n2Cc2ccc(Cl)cc2)cc1Cl [I-495],125 nM
9,CSc1cccc(/N=c2\[nH]c(=O)n(CC(C)(C)C(=O)O)c(=O)n2Cc2ccc(Cl)cc2)c1 [I-510],98 nM
10,Cc1ccc(Cn2c(=O)n(CC(=O)N[C@@H](C)C(=O)O)c(=O)[nH]/c2=N\c2ccc(OC(C)C)c(F)c2)cc1 [I-418],200 nM
11,CC(C)Cc1ccc(Nc2nc(=O)n(CC(CO)CO)c(=O)n2Cc2ccc(Cl)cc2)cc1 [I-366],46 nM
12,COC(=O)C(C)(C)Cn1c(=O)[nH]/c(=N\c2ccc(OC(C)C)nc2)n(Cc2ccc(Cl)cc2)c1=O [I-473],583 nM
13,COC(=O)[C@@H](C)Cn1c(=O)[nH]/c(=N\c2ccc(OC(C)C)c(F)c2)n(Cc2ccc(C)cc2)c1=O [I-515],6 nM
14,CC(C)Oc1ccc(/N=c2\[nH]c(=O)n([C@@H](C)CC(=O)O)c(=O)n2Cc2ccc(Cl)cc2)cc1F [I-527],33 nM
15,CC(C)Cn1ccc2cc(/N=c3\[nH]c(=O)n(CC(C)(C)C(=O)O)c(=O)n3Cc3ccc(Cl)cc3)ccc21 [I-508],511 nM
16,CCOC(=O)c1ccccc1Cn1c(=O)[nH]/c(=N\c2ccc(OC(C)C)c(F)c2)n(Cc2ccc(Cl)cc2)c1=O [I-454],24 nM
